The text below walks through data of ChEMBL document CHEMBL2375350, “Synthesis of indolyl-3-acetonitrile derivatives and their inhibitory effects on nitric oxide and PGE2 productions in LPS-induced RAW 264.7 cells” (Bioorg Med Chem Lett, 2013).

For experiment [1], the system named is RAW264.7. The experiment is described as follows: Cytotoxicity against mouse RAW264.7 cells assessed as cell viability after 24 hrs by MTT assay. It is filed as cell-based. As to conditions: RAW264.7, 24 h.
In experiment [2] the test system is RAW264.7. The experiment is described as follows: Antiinflammatory activity in mouse RAW264.7 cells assessed as inhibition of LPS-induced PGE2 production incubated for 1 hr prior to LPS challenge measured after 24 hrs by EIA. The experiment is classed as functional, cell-based.
Experiment [3] concerns RAW264.7. The experiment is described as follows: Antiinflammatory activity in mouse RAW264.7 cells assessed as inhibition of LPS-induced nitrite production after 24 hrs by Griess assay. The experiment is classed as functional, cell-based. Particulars: RAW264.7, 24 h.

pIC50: −log10 of the molar value. A value given as a limit tells only on which side of the number the result lay.

`N#CCc1c[nH]c2ccc(OCc3ccccc3)cc12`: the pIC50 in the experiment with RAW264.7 [1] is 4.08; in the experiment with RAW264.7 [2], < 4.60; in the experiment with RAW264.7 [3] it was 4.71.
The matching figures for `COc1ccc2c(CC#N)c[nH]c2c1`: 3.79, 4.08 and < 4.00.
Turning to `COC(=O)n1cc(CC#N)c2ccc(O)cc21`, the pIC50 in the experiment with RAW264.7 [1] is 3.47; in the experiment with RAW264.7 [2] it was 4.82; with RAW264.7 [3], < 4.00.
The matching figures for `COC(=O)Cn1cc(CC#N)c2ccc(O)cc21`: < 3.40, < 4.00 and < 4.00.
For the compound `Cn1cc(CC#N)c2cccc(O)c21`, the pIC50 with RAW264.7 [1] was < 3.40; in the experiment with RAW264.7 [2] it was 5.21; with RAW264.7 [3], 4.40.
Regarding `CC(=O)n1cc(CC#N)c2ccc(O)cc21`, the results for the pIC50 in the experiment with RAW264.7 [1], with RAW264.7 [2] and in the experiment on RAW264.7 [3] were < 3.40, 4.38 and 4.09, respectively.
With `Cn1cc(CC#N)c2ccc(O)cc21`, the pIC50 in the experiment with RAW264.7 [1] is 3.43; in the experiment with RAW264.7 [2] it was 4.93; with RAW264.7 [3], 4.10.
The matching figures for `Cn1cc(CC#N)c2c(O)cccc21`: < 3.40, 4.80 and 4.24.
For `Cn1cc(CC#N)c2cc(O)ccc21`, in that order: 3.49, 4.24 and < 4.00.
As for `N#CCc1c[nH]c2c(OCc3ccccc3)cccc12`, the pIC50 in the experiment on RAW264.7 [1] was < 3.40; with RAW264.7 [2], 4.14; with RAW264.7 [3], 4.31.
For `N#CCc1c[nH]c2cccc(OCc3ccccc3)c12`, in that order: 3.98, 4.49 and 4.34.
For `N#CCc1c[nH]c2cc(OCc3ccccc3)ccc12`, the figures for the pIC50 in the experiment with RAW264.7 [1], in the experiment with RAW264.7 [2] and in the experiment with RAW264.7 [3] were 4.27, < 4.60 and 4.69, respectively.
For `COc1cccc2c(CC#N)c[nH]c12`, the pIC50 in the experiment on RAW264.7 [1] is < 3.40; in the experiment on RAW264.7 [2], < 4.00; in the experiment on RAW264.7 [3], < 4.00.
For `COc1ccc2[nH]cc(CC#N)c2c1`, the pIC50 with RAW264.7 [1] is 4.00; with RAW264.7 [2] it was < 4.00; in the experiment on RAW264.7 [3], < 4.00.
`COc1cccc2[nH]cc(CC#N)c12` [ARVELEXIN]: the pIC50 is 3.68 with RAW264.7 [1], 4.86 with RAW264.7 [2] and 4.08 in the experiment with RAW264.7 [3].

The term pIC50 denotes −log10 of the IC50, conventionally taken in molar units.
